pEC50: −log10 of the molar value. *1 amine or outer side, *2 acyl side, *3 side chain or, on linkers, in order; H or OH if unused. Where a SMILES comes first, the peptide text is derived from it. Bridges are numbered along the chain shown (N, C = ends). [ ]: non-standard residue; d: D form. Phe(4-guanidino) = N=C(N)Nc1ccc(C[C@H](N)C(=O)O)cc1; Ala(pyrimidin-5-yl) = N[C@@H](Cc1cncnc1)C(=O)O; Ala(thiazol-5-yl) = N[C@@H](Cc1cncs1)C(=O)O; NMe3Pal(5-F) = CN[C@@H](Cc1cncc(F)c1)C(=O)O; Trp(1-Me) = Cn1cc(C[C@H](N)C(=O)O)c2ccccc21; X43 = CN([C@@H](Cc1cnccc1F)C(=O)[*:2])[*:1]; Arg(Me2s) = CN=C(NC)NCCC[C@H](N)C(=O)O; Phe(4-F) = N[C@@H](Cc1ccc(F)cc1)C(=O)O; NHCH2CH2SCH2CO = O=C(CSCCN[*:1])[*:2]; Phe(2-F) = N[C@@H](Cc1ccccc1F)C(=O)O; Abu(4,4-F2) = N[C@@H](CC(F)F)C(=O)O; NMe3Pal = CN[C@@H](Cc1cccnc1)C(=O)O; X1 = O=C(C12CC(CN[*:1])(C1)C2)[*:2]; Aha = [N-]=[N+]=NCC[C@H](N)C(=O)O; Ala(cPr) = N[C@@H](CC1CC1)C(=O)O; NMeF = CN[C@@H](Cc1ccccc1)C(=O)O; PhLac = O=C(O)[C@@H](O)Cc1ccccc1; 3Pal = N[C@@H](Cc1cccnc1)C(=O)O; 4Pal = N[C@@H](Cc1ccncc1)C(=O)O; X50 = CC(CCCC(=O)[*:2])N[*:1]; Ahp(2) = CCCCC[C@H](N)C(=O)O; Cba = N[C@@H](CC1CCC1)C(=O)O; NMeNle = CCCC[C@H](NC)C(=O)O; hLeu = CC(C)CC[C@H](N)C(=O)O; αMeC = C[C@](N)(CS)C(=O)O; NMeA = CN[C@@H](C)C(=O)O; Nle = CCCC[C@H](N)C(=O)O; Nva = CCC[C@H](N)C(=O)O

For the test, the target named is KRAS-G12D protein (Homo sapiens, UniProt P01116, G12D). The test is described as follows: SOS-mediated nucleotide exchange assay (BODIPY-GDP / Tb-streptavidin TR-FRET). Format: biochemical.
KRAS-G12D protein, sequence (P01116 1-188 isoform P01116-2 G12D): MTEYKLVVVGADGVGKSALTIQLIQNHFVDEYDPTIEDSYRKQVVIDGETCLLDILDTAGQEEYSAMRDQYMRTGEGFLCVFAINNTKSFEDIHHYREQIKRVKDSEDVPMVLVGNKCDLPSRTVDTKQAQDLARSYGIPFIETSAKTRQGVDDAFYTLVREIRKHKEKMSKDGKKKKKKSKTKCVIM
For `CCCC[C@@H]1NC(=O)[C@H](Cc2ccc(OC)cc2)NC(=O)[C@H](CC2CCC2)NC(=O)[C@H](Cc2cccnc2)NC(=O)[C@H](CCCNC(=N)N)NC(=O)[C@H](Cc2ccccc2)NC(=O)C23CC(CNC(=O)[C@H](Cc4ccccc4)N(C)C1=O)(C2)C3` [compound 98, cyclo(F-R-3Pal-cBuA-TyrOMe-Nle-NMeF-amBCP)] (cyclo(FR[3Pal][Cba]Y(Me)[Nle][NMeF][X1])), the pEC50 was 8.26.
The figure for `CC(C)CC[C@@H]1NC(=O)[C@H](Cc2ccccc2F)NC(=O)[C@H](CC2CC2)NC(=O)[C@H](Cc2cccnc2)NC(=O)[C@H](C)N(C)C(=O)[C@H](Cc2ccccc2)OC(=O)C23CC(CNC(=O)[C@H](Cc4cncc(F)c4)N(C)C1=O)(C2)C3` [compound 283, cyclo(FLac-NMeA-3Pal-cPrA-Phe2F-hL-NMe3Pal5F-amBCP)] (cyclo([3Pal][Ala(cPr)][Phe(2-F)][hLeu][NMe3Pal(5-F)][X1][PhLac][NMeA])) is 8.52; for `CCC[C@@H]1NC(=O)[C@H](Cc2ccc(OC)cc2)NC(=O)[C@H](CC(C)C)NC(=O)[C@H](Cc2ccncc2)NC(=O)[C@H](CCCNC(=N)N)NC(=O)[C@H](Cc2ccc(F)cc2)NC(=O)CSCCNC(=O)[C@H](Cc2ccccc2)N(C)C1=O` [compound 88, cyclo(Phe4F-R-4Pal-L-TyrOMe-Nva-NMeF-Cysteamine-ClAc)] (cyclo([4Pal]LY(Me)[Nva][NMeF][NHCH2CH2SCH2CO][Phe(4-F)]R)) it is 5.52.
Then `CCCC[C@@H]1NC(=O)[C@H](Cc2ccc(NC(=N)N)cc2)NC(=O)[C@H](CCCNC(=N)N)NC(=O)[C@H](Cc2ccccc2)NC(=O)CCCC(C)NC(=O)[C@H](Cc2ccccc2)N(C)C(=O)[C@H](CCCC)NC(=O)[C@H](Cc2ccc(OC)cc2)NC1=O` (stereo partly drawn) [compound 93, cyclo(F-R-Phe4Gn-Nle-TyrOMe-Nle-NMeF-SamHex)] (cyclo(FR[Phe(4-guanidino)][Nle]Y(Me)[Nle][NMeF][X50])), with 6.85.
In turn, `CCCC[C@@H]1NC(=O)[C@H](Cc2cccnc2)NC(=O)[C@H](C)N(C)C(=O)[C@H](Cc2ccc(O)cc2)NC(=O)C23CC(CNC(=O)[C@H](Cc4cccnc4)N(C)C(=O)[C@H](CCCC)NC(=O)[C@H](Cc4ccccc4F)NC1=O)(C2)C3` [compound 168, cyclo(Y-NMeA-3Pal-Nle-Phe2F-Nle-NMe3Pal-amBCP)] (cyclo(Y[NMeA][3Pal][Nle][Phe(2-F)][Nle][NMe3Pal][X1])) had a pEC50 of 6.36.
The figure for `CCCCC[C@@H]1NC(=O)[C@H](Cc2ccc(OC)cc2)NC(=O)[C@H](CC2CCC2)NC(=O)[C@H](Cc2cncs2)NC(=O)[C@H](CCCNC(=N)N)NC(=O)[C@H](Cc2ccccc2)NC(=O)CSC[C@@](C)(C(N)=O)NC(=O)[C@H](Cc2ccccc2)N(C)C1=O` [compound 363, cyclo(F-R-TZAla-cBuA-TyrOMe-Ahp-NMeF-aMeCl-ClAc)] ({CH2CO}-FR[Ala(thiazol-5-yl)][Cba]Y(Me)[Ahp(2)][NMeF][αMeC]-NH2; thioether N-8) is 7.88.
Then `C[C@H]1C(=O)N[C@@H](Cc2cncnc2)C(=O)N[C@@H](CC2CC2)C(=O)N[C@@H](Cc2ccccc2F)C(=O)N[C@@H](CC(F)F)C(=O)N(C)[C@@H](Cc2ccccc2)C(=O)NCC23CC(C2)(C3)C(=O)O[C@@H](Cc2ccccc2)C(=O)N1C` [compound 271, cyclo(FLac-NMeA-PyrimAla-cPrA-Phe2F-AbuF2-NMeF-amBCP)] (cyclo([Ala(cPr)][Phe(2-F)][Abu(4,4-F2)][NMeF][X1][PhLac][NMeA][Ala(pyrimidin-5-yl)])), with 6.14.
The compound `CCCC[C@@H]1NC(=O)[C@H](Cc2ccccc2F)NC(=O)[C@H](CCN=[N+]=[N-])NC(=O)[C@H](Cc2cccnc2)NC(=O)[C@H](CCCC)N(C)C(=O)[C@H](Cc2ccccc2)OC(=O)C23CC(CNC(=O)[C@H](Cc4cccnc4)N(C)C1=O)(C2)C3` [compound 243, cyclo(FLac-NMeNle-3Pal-DabN3-Phe2F-Nle-NMe3Pal-amBCP)] (cyclo([3Pal][Aha][Phe(2-F)][Nle][NMe3Pal][X1][PhLac][NMeNle])) had a negative logarithm of the EC50 (pEC50) of 5.51.
The figure for `CCCC[C@@H]1NC(=O)[C@H](Cc2ccc(OC)cc2)NC(=O)[C@H](CC(C)C)NC(=O)[C@H](Cc2ccc(NC(=N)N)cc2)NC(=O)[C@H](CCCN=C(NC)NC)NC(=O)[C@H](Cc2ccccc2)NC(=O)CSC[C@H](C(N)=O)NC(=O)[C@H](Cc2ccccc2)N(C)C1=O` [compound 46, cyclo(F-ArgMeMe-Phe4Gn-L-TyrOMe-Nle-NMeF-dCl-ClAc)] ({CH2CO}-F[Arg(Me2s)][Phe(4-guanidino)]LY(Me)[Nle][NMeF][dC]-NH2; thioether N-8) is 5.94; for `CC(C)CC[C@@H]1NC(=O)[C@H](Cc2ccccc2F)NC(=O)[C@H](CC(F)F)NC(=O)[C@H](Cc2cncnc2)NC(=O)[C@H](C)N(C)C(=O)[C@H](Cc2ccccc2)OC(=O)C23CC(CNC(=O)[C@H](Cc4ccccc4)N(C)C1=O)(C2)C3` [compound 304, cyclo(FLac-NMeA-PyrimAla-AbuF2-Phe2F-hL-NMeF-amBCP)] (cyclo([NMeA][Ala(pyrimidin-5-yl)][Abu(4,4-F2)][Phe(2-F)][hLeu][NMeF][X1][PhLac])) it is 7.77; for `CCCCC[C@@H]1NC(=O)[C@H](Cc2ccc(O)cc2)NC(=O)[C@H](CC(C)C)NC(=O)[C@H](Cc2ccc(O)cc2)NC(=O)[C@H](CCCNC(=N)N)NC(=O)[C@H](Cc2cn(C)c3ccccc23)NC(=O)CSC[C@@H](C(N)=O)NC(=O)[C@H](Cc2ccccc2)N(C)C1=O` [compound 6, cyclo(TrplMe-R-Y-L-Y-Ahp-NMeF-Cl-ClAc)] ({CH2CO}-[Trp(1-Me)]RYLY[Ahp(2)][NMeF]C-NH2; thioether N-8) it is 6.54.
As to `CCC[C@@H]1NC(=O)[C@H](Cc2ccc(OC)cc2)NC(=O)[C@H](CC(C)C)NC(=O)[C@H](Cc2ccncc2)NC(=O)[C@H](CCCNC(=N)N)NC(=O)[C@H](Cc2ccc(F)cc2)NC(=O)CSC[C@H](C(=O)NCC(=O)NCC(=O)O)NC(=O)[C@H](Cc2ccccc2)N(C)C1=O` [compound 66, cyclo(Phe4F-R-4Pal-L-TyrOMe-Nva-NMeF-dC6-ClAc)] ({CH2CO}-[Phe(4-F)]R[4Pal]LY(Me)[Nva][NMeF][dC]GG-OH; thioether N-8), the pEC50 was 6.43.
Then `CCCC[C@@H]1NC(=O)[C@H](C(C)C)NC(=O)[C@H](CC2CCC2)NC(=O)[C@H](Cc2cccnc2)NC(=O)[C@H](CCN=[N+]=[N-])NC(=O)[C@H](Cc2ccccc2)NC(=O)C23CC(CNC(=O)[C@H](Cc4cccnc4)N(C)C1=O)(C2)C3` [compound 113, cyclo(F-DabN3~3Pal-cBuA-V-Nle-NMe3Pal-amBCP)] (cyclo(F[Aha][3Pal][Cba]V[Nle][NMe3Pal][X1])), with 5.18.
The figure for `CC(C)CC[C@@H]1NC(=O)[C@H](Cc2ccccc2F)NC(=O)[C@H](CC2CC2)NC(=O)[C@H](Cc2cncnc2)NC(=O)[C@H](C)N(C)C(=O)[C@H](Cc2ccccc2)OC(=O)C23CC(CNC(=O)[C@H](Cc4cnccc4F)N(C)C1=O)(C2)C3` [compound 338, cyclo(FLac-NMeA-PyrimAla-cPrA-Phe2F-hL-NMe3Pal6F-amBCP)] (cyclo([Ala(cPr)][Phe(2-F)][hLeu][X43][X1][PhLac][NMeA][Ala(pyrimidin-5-yl)])) is 8.70; for `CCCC[C@@H]1NC(=O)[C@H](Cc2ccc(OC)cc2)NC(=O)[C@H](CC2CCC2)NC(=O)[C@H](Cc2cccnc2)NC(=O)[C@H](CCCNC(=N)N)NC(=O)[C@H](Cc2ccccc2)NC(=O)C2CCC3(CN(C3)C(=O)[C@H](Cc3ccccc3)N(C)C1=O)O2` (single isomer, unassigned) [compound 100, cyclo(F-R-3Pal-cBuA-TyrOMe-Nle-NMeF-spiro54)] it is 6.18.

The record behind these values is patent US20260001914A1, “MACROCYCLIC PEPTIDES TARGETING KRAS” (Merck Sharp & Dohme LLC, priority 2022, published 2026).
